# Assay results: PMC11784145, “Efficacy and in vitro pharmacological assessment of novel N-hydroxypyridinediones as hepatitis B virus ribonuclease H inhibitors” (Antimicrobial Agents and Chemotherapy, 2024)
# Tested on: not listed separately
# Test: Parallel artificial membrane permeability assay (PAMPA)
# Assay type: in vitro ADME
# Conditions: FeSSIF pH 5
# Description: Compound Papp values were determined by normalizing the experimental compound absorbance to the compounds’ absorbances at equilibrium, membrane porosity, buffer volume, and time (s). Two or more replicate assays were obtained on separate days for each pH.
SMILES,Avg Papp (PAMPA),Interpretation (PAMPA Papp)
CC(=NOCc1ccccc1Br)c1c(C)cc(=O)n(O)c1O [Compound 1718],436 nm/s,H (H: Papp > 1*10-6)
CC(=NOCc1ccc(C(F)(F)F)cc1)c1c(C)cc(=O)n(O)c1O [Compound 1235],180 nm/s,H (H: Papp > 1*10-6)

# Same assay, conditions: FeSSIF pH 5, replicate 1
row,SMILES,Papp 1 (PAMPA)
1,CC(=NOCc1ccccc1Br)c1c(C)cc(=O)n(O)c1O [Compound 1718],373 nm/s
2,CC(=NOCc1ccc(C(F)(F)F)cc1)c1c(C)cc(=O)n(O)c1O [Compound 1235],227 nm/s

# Same assay, conditions: FeSSIF pH 5, replicate 2
row,SMILES,Papp 2 (PAMPA)
1,CC(=NOCc1ccccc1Br)c1c(C)cc(=O)n(O)c1O [Compound 1718],500 nm/s
2,CC(=NOCc1ccc(C(F)(F)F)cc1)c1c(C)cc(=O)n(O)c1O [Compound 1235],132 nm/s

# Same assay, conditions: pH 7.4
SMILES,Avg Papp (PAMPA),Interpretation (PAMPA Papp)
CC(=NOCc1ccccc1Br)c1c(C)cc(=O)n(O)c1O [Compound 1718],32.2 nm/s,H (H: Papp > 1*10-6)
CC(=NOCc1ccc(C(F)(F)F)cc1)c1c(C)cc(=O)n(O)c1O [Compound 1235],33.4 nm/s,H (H: Papp > 1*10-6)

# Same assay, conditions: pH 7.4, replicate 1
row,SMILES,Papp 1 (PAMPA)
1,CC(=NOCc1ccccc1Br)c1c(C)cc(=O)n(O)c1O [Compound 1718],33.1 nm/s
2,CC(=NOCc1ccc(C(F)(F)F)cc1)c1c(C)cc(=O)n(O)c1O [Compound 1235],22.9 nm/s

# Same assay, conditions: pH 7.4, replicate 2
row,SMILES,Papp 2 (PAMPA)
1,CC(=NOCc1ccccc1Br)c1c(C)cc(=O)n(O)c1O [Compound 1718],30.7 nm/s
2,CC(=NOCc1ccc(C(F)(F)F)cc1)c1c(C)cc(=O)n(O)c1O [Compound 1235],44 nm/s

# Same assay, conditions: pH 7.4, replicate 3
row,SMILES,Papp 3 (PAMPA)
1,CC(=NOCc1ccccc1Br)c1c(C)cc(=O)n(O)c1O [Compound 1718],32.9 nm/s

# Tested on: HBV replication (HBV plus-polarity DNA strand)
# Test: HBV replication inhibition, strand preferential qPCR in hepDES19 cells
# Assay type: cell-based, hepatitis B virus
# Conditions: not given
# Description: HBV replication inhibition was measured in hepDES19 cells following 72 h compound exposure without compound replenishment. EC50 values were determined by HBV plus-polarity strand suppression using a strand preferential qPCR assay, as described previously ([28]). Three or more replicate values were obtained on different days.
row,SMILES,HepDES19 SI (CC50/EC50)
1,CC(=NOCc1ccccc1Br)c1c(C)cc(=O)n(O)c1O [Compound 1718],34.1
2,CC(=NOCc1ccc(C(F)(F)F)cc1)c1c(C)cc(=O)n(O)c1O [Compound 1235],26.3

# Same assay, conditions: 72 h exposure, HBV plus-polarity strand suppression, highest concentration tested 100 µM, mean ± SD, read-out: HepDES19 EC50
row,SMILES,EC50
1,CC(=NOCc1ccccc1Br)c1c(C)cc(=O)n(O)c1O [Compound 1718],2 ± 1.63 µM
2,CC(=NOCc1ccc(C(F)(F)F)cc1)c1c(C)cc(=O)n(O)c1O [Compound 1235],1.87 ± 0.351 µM

# Tested on: not listed separately
# Test: Microsome stability
# Assay type: in vitro ADME, human
# Conditions: human, microsomes
# Description: Human liver microsomes (gender pooled, 50 individuals) were purchased from BioIVT and stored at −80°C until use. […] Reactions were initiated by addition of 1.2 mM NADPH. […] Microsomal proteins were pelleted at 4,000 × g and the supernatant was analyzed via LCMS/MS. […] The ln percent remaining values were plotted against time, the negative slope was taken (k), and compound half-life (t1/2) was determined using ln2/k. Intrinsic clearance (Clint [µL/min/mg]) was calculated by (V × ln2)/t1/2, where V is the incubation volume (µL) divided by the protein concentration in the reaction (mg) ([31]).
SMILES,"Clearance (intrinsic clearance, Clint)",Half-life
CC(=NOCc1ccc(C(F)(F)F)cc1)c1c(C)cc(=O)n(O)c1O [Compound 1235],5.48 µL/min/mg,>30 min

# Tested on: HepDES19 cells
# Test: not given
# Conditions: read-out: HepDES19 CC50; 72 h, MTS; highest concentration tested 100 µM; mean ± SD
row,SMILES,CC50
1,CC(=NOCc1ccccc1Br)c1c(C)cc(=O)n(O)c1O [Compound 1718],80.8 ± 27.5 µM
2,CC(=NOCc1ccc(C(F)(F)F)cc1)c1c(C)cc(=O)n(O)c1O [Compound 1235],49.2 ± 19.2 µM

# Tested on: not listed separately
# Test: Solubility limit, turbidimetric assay
# Assay type: physicochemical
# Conditions: pH 5 (fed simulated intestinal fluid); upper limit 200 µM
# Description: Solubility limits were determined by a turbidimetric assay, as described ([27]), with the solubility limit being defined as the compound concentration where light scattering began to rise. Two or more replicate assays were performed for each compound at each pH on different days.
row,SMILES,Average Sol (solubility limit)
1,CC(=NOCc1ccccc1Br)c1c(C)cc(=O)n(O)c1O [Compound 1718],> 200 µM
2,CC(=NOCc1ccc(C(F)(F)F)cc1)c1c(C)cc(=O)n(O)c1O [Compound 1235],> 200 µM

# Same assay, conditions: pH 5, replicate 1; upper limit 200 µM
row,SMILES,Sol 1 (solubility limit)
1,CC(=NOCc1ccccc1Br)c1c(C)cc(=O)n(O)c1O [Compound 1718],> 200 µM
2,CC(=NOCc1ccc(C(F)(F)F)cc1)c1c(C)cc(=O)n(O)c1O [Compound 1235],> 200 µM

# Same assay, conditions: pH 5, replicate 2; upper limit 200 µM
row,SMILES,Sol 2 (solubility limit)
1,CC(=NOCc1ccccc1Br)c1c(C)cc(=O)n(O)c1O [Compound 1718],> 200 µM
2,CC(=NOCc1ccc(C(F)(F)F)cc1)c1c(C)cc(=O)n(O)c1O [Compound 1235],> 200 µM

# Same assay, conditions: pH 6.5 (fasted simulated intestinal fluid); upper limit 200 µM
row,SMILES,Average Sol (solubility limit)
1,CC(=NOCc1ccccc1Br)c1c(C)cc(=O)n(O)c1O [Compound 1718],138 µM
2,CC(=NOCc1ccc(C(F)(F)F)cc1)c1c(C)cc(=O)n(O)c1O [Compound 1235],167 µM

# Same assay, conditions: pH 6.5, replicate 1; upper limit 200 µM
row,SMILES,Sol 1 (solubility limit)
1,CC(=NOCc1ccccc1Br)c1c(C)cc(=O)n(O)c1O [Compound 1718],50 µM
2,CC(=NOCc1ccc(C(F)(F)F)cc1)c1c(C)cc(=O)n(O)c1O [Compound 1235],100 µM

# Same assay, conditions: pH 6.5, replicate 2; upper limit 200 µM
row,SMILES,Sol 2 (solubility limit)
1,CC(=NOCc1ccccc1Br)c1c(C)cc(=O)n(O)c1O [Compound 1718],100 µM
2,CC(=NOCc1ccc(C(F)(F)F)cc1)c1c(C)cc(=O)n(O)c1O [Compound 1235],> 200 µM

# Same assay, conditions: pH 6.5, replicate 3; upper limit 200 µM
row,SMILES,Sol 3 (solubility limit)
1,CC(=NOCc1ccccc1Br)c1c(C)cc(=O)n(O)c1O [Compound 1718],> 200 µM
2,CC(=NOCc1ccc(C(F)(F)F)cc1)c1c(C)cc(=O)n(O)c1O [Compound 1235],> 200 µM

# Same assay, conditions: pH 6.5, replicate 4; upper limit 200 µM
row,SMILES,Sol 4 (solubility limit)
1,CC(=NOCc1ccccc1Br)c1c(C)cc(=O)n(O)c1O [Compound 1718],> 200 µM

# Same assay, conditions: pH 7.4 (DMEM-F12 with 10% FBS); upper limit 200 µM
row,SMILES,Average Sol (solubility limit)
1,CC(=NOCc1ccccc1Br)c1c(C)cc(=O)n(O)c1O [Compound 1718],150 µM
2,CC(=NOCc1ccc(C(F)(F)F)cc1)c1c(C)cc(=O)n(O)c1O [Compound 1235],> 200 µM

# Same assay, conditions: pH 7.4, replicate 1; upper limit 200 µM
row,SMILES,Sol 1 (solubility limit)
1,CC(=NOCc1ccccc1Br)c1c(C)cc(=O)n(O)c1O [Compound 1718],50 µM
2,CC(=NOCc1ccc(C(F)(F)F)cc1)c1c(C)cc(=O)n(O)c1O [Compound 1235],> 200 µM

# Same assay, conditions: pH 7.4, replicate 2; upper limit 200 µM
row,SMILES,Sol 2 (solubility limit)
1,CC(=NOCc1ccccc1Br)c1c(C)cc(=O)n(O)c1O [Compound 1718],> 200 µM
2,CC(=NOCc1ccc(C(F)(F)F)cc1)c1c(C)cc(=O)n(O)c1O [Compound 1235],> 200 µM

# Same assay, conditions: pH 7.4, replicate 3; upper limit 200 µM
row,SMILES,Sol 3 (solubility limit)
1,CC(=NOCc1ccccc1Br)c1c(C)cc(=O)n(O)c1O [Compound 1718],> 200 µM
